The numbers were not newly measured in patent publication US20210023041A1, “FORMULATIONS AND COMPOSITIONS OF DOCETAXEL” (Zhuhai Beihai Biotech Co., Ltd., priority 2018, published 2021), which cites them from elsewhere.

On to `CC(=O)O[C@@]12CO[C@@H]1C[C@H](O)[C@@]1(C)C(=O)[C@H](O)C3=C(C)[C@@H](OC(=O)[C@H](O)[C@@H](NC(=O)OC(C)(C)C)c4ccccc4)C[C@@](O)([C@@H](OC(=O)c4ccccc4)[C@H]21)C3(C)C` [Docetaxel], for which the solubility in water result is reported as “practically insoluble in water”. For the same compound, the “in vitro binding to plasma proteins” value in the data set on plasma proteins (in three cancer patients) is “approximately 97%”. The protein bound result in the data set on plasma proteins (in vitro studies, mainly to α1-acid glycoprotein, albumin, and lipoproteins) is listed as “about 94%”. For the same compound, in the data set with microtubule, the “potency in inhibiting microtubule depolymerization relative to paclitaxel” value is on record as “twice as potent as paclitaxel”.
